Patent publication US7671062B2, “Modulators of chemokine receptor activity, crystalline forms and process” (Bristol-Myers Squibb Company, priority 2006, dated 2010)
Read-outs that look alike come from different tables or passages of the source.

Legend:
[1] = molecular target: Cyno CCR2 (Macaca fascicularis); test: In vitro chemotaxis assay with L1.2 cells stably transfected with Cyno CCR2; type: cell-based, Cynomolgus monkey
Excerpt: The first employs monkey PBMC's while the second uses L1.2 cells stably transfected with Cyno CCR2.

[2] = system: monocyte/macrophage infiltration into peritoneal cavity; test: 48-hour thioglycollate (TG)-induced peritonitis model in hCCR2 KI mouse; type: in vivo, hCCR2 KI mice; conditions: for % inhibition of monocyte/macrophage infiltration: FACS-based analysis of total monocyte/macrophages, 48 h; for EC50: Mus musculus, two separate studies, estimated, read-out: average EC50 for inhibition of monocyte/macrophage infiltration; for inhibition of monocyte/macrophage infiltration: flow cytometry (F4/80, Ly6C)
Method: The hCCR2 KI mice (C57BL/6-SVJ129) were injected intraperitoneally with 1 ml of thioglycollate (TG) (Hardy Diagnostics). For each study, eight male mice per group were used. […] The vehicle used was 0.01 N HCl in water. Forty-eight hours post TG injection, peritoneal lavages were performed by injecting 5 ml PBS/10 mM EDTA/10% BSA into the peritoneal cavity.
Cytospins were performed to determine differential leukocyte counts. The cells were stained for 3 minutes with Wright-Giemsa Stain (Sigma-Aldrich) and then rinsed with deionized water for 5 minutes. Differential counts were calculated based on a total of 200 cells counted per sample.

Chain of Cyno CCR2 (Macaca fascicularis) (Z9BGH1DMK8 1-374): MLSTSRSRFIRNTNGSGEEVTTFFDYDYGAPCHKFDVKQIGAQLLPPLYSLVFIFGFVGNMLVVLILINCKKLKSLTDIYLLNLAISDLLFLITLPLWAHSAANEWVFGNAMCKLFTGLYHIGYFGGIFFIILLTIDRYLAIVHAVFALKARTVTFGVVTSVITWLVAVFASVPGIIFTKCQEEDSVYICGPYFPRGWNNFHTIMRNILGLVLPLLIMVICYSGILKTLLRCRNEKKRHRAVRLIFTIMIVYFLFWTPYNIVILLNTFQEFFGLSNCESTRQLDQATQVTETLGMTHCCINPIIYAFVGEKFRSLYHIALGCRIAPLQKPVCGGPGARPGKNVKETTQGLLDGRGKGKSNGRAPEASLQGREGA

CC(=O)N[C@@H]1C[C@H](N(C)C(C)C)CC[C@@H]1N1CC[C@H](Nc2ncnc3ccc(C(F)(F)F)cc23)C1=O [Example 1, N-((1R,2S,5R)-5-(isopropyl(methyl)amino)-2-((S)-2-oxo-3-(6-(trifluoromethyl)quinazolin-4-ylamino)pyrrolidin-1-yl)cyclohexyl)acetamide]
IC50 [1]: 11.4 ± 8 nM
% inhibition of monocyte/macrophage infiltration ([2]; 1 mg/kg): 38%
% inhibition of monocyte/macrophage infiltration ([2]; 5 mg/kg): 71%
% inhibition of monocyte/macrophage infiltration ([2]; 25 mg/kg): 86%
number of total peritoneal leukocytes obtained by cell counter ([2]; 1, 5, or 25 mg/kg BID oral, 48 hours post TG): dose-dependent reduction
EC50 ([2]; differential leukocyte counts): 3 ± 0.9 nM
EC50 ([2]; flow cytometry): 2.2 ± 0.5 nM
inhibition of monocyte/macrophage influx ([2]; differential leukocyte counts, 1 mg/kg BID): 20%
inhibition of monocyte/macrophage influx ([2]; differential leukocyte counts, 5 mg/kg BID): 62%
inhibition of monocyte/macrophage influx ([2]; differential leukocyte counts, 25 mg/kg BID): 69%
inhibition of monocyte/macrophage infiltration ([2]; 1 mg/kg BID): 38%
inhibition of monocyte/macrophage infiltration ([2]; 5 mg/kg BID): 71%
inhibition of monocyte/macrophage infiltration ([2]; 25 mg/kg BID): 86%
